For assay [1], the system named is human small cell lung cancer sample LU5243. In words: In vivo patient derived xenograft (PDX) study, LU5243 (predicted responder). Set-up: species or system mice. To be noted: pentamidine 10 or 20 mg/kg IP QD, FIGS. 1 and 2. The method, then: 50 mice were enrolled in the study. 25 mice were randomly allocated to each of two human small cell lung cancer tumor models: LU5181 and LU5243. […] However, expression profile of human LU5243, another SCLC tumor sample, successfully matched with the predicted gene expression signature for pentamidine (e.g., as described above, and in Table 1 and Table 2).
Randomization of the 50 mice was performed using the multi-task method in the Study Log software on day 0. Average tumor volume (mm^3) for each group ±SD at randomization was as follows. […]
Tumor cryovials containing tumor cells were thawed and prepared for inoculation into mice. Cells were washed in PBS, counted, and re-suspended in cold PBS at concentrations of 100,000 viable cells/100 μL. […]
Mice were monitored weekly for palpable tumors, or any changes in appearance or behavior. Once tumors were palpable, they were measured twice a week using calipers. Tumor volume was calculated using the following equation (longest diameter×shortest diameter^2)/2.
Stock solution of pentamidine was made in water at 10 mg/mL. Amount needed for dosing for one week was calculated and was diluted with PBS. […]
Body weight was measured twice a week. […]
For all animals, tumors were collected, weighed, weight recorded and snap frozen. […]

The subject of assay [2] is biomarker genes of Tables 1, 2 and 3 (INSM1, GADD45G, C1QL1, STAT6, SMAD3, RNF43 and others). The assay is described as follows: Biomarker gene expression after dosing of pentamidine in human SCLC PDX study. Type of assay: in vivo, mice. To be noted: SCLC subtype sensitive to pentamidine. An excerpt: A computational model was constructed to identify patient subpopulations of small cell lung cancer, leveraging data from 5 different datasets of treatment-naïve human small cell lung cancer biopsies (Gene Expression Omnibus identifiers GSE30219, GSE43346, GSE50451; George et al. (2015) Nature 524:47-53; and Rudin et al. (2012) Nat. Genet. 44:1111-1116). Pentamidine was a strong match to one SCLC subpopulation identified by the model. Potential biomarker genes for each subpopulation were discovered using another modeling approach. […] Among the 41 genes (see Tables 1, 2 and 3), the following six genes were selected for further study: INSM1, GADD45G, C1QL1, STAT6, SMAD3 and RNF43.
For all animals, tumors were collected, weighed, weight recorded and snap frozen. Blood for plasma isolation was taken from each animal at 4 hours after dosing. All samples collected from this study were stored in −80° C. For Group01-03, any time that an animal has to be taken down prior to normal end of study termination, the animal was dosed and sampled 4 hours after the dose was given. For group04, tumors were collected 4 hours after the third dose was given. Tumors were weighed and snap-frozen.

On to `N=C(N)c1ccc(OCCCCCOc2ccc(C(=N)N)cc2)cc1` [Pentamidine, 1,5-Bis(4-amidinophenoxy)pentane], for which the “efficacy in PDX model (tumor volume)” value in assay [1] is “significant efficacy”. Besides, in assay [2] (high expression biomarkers), the “expression of genes in Table 1 (INSM1, GADD45G, C1QL1) upon treatment with pentamidine” value is recorded as “repressed nearly to normal levels”. For the same compound, the “expression of genes in Table 2 (STAT6, SMAD3, RNF43) upon treatment with pentamidine” value in assay [2] (low expression biomarkers) is “increased nearly to normal levels”.
